The values that follow come from article PMC5784132, “Investigation of 20S-hydroxyvitamin D3 analogs and their 1α-OH derivatives as potent vitamin D receptor agonists with anti-inflammatory activities” (Scientific Reports, 2018).

Each structure is given as a SMILES string. Read-outs that look alike come from different tables or passages of the source.

One series concerns CYP24A1 gene expression. The experiment in a line: RT-PCR analysis of CYP24A1 expression in HaCaT cells. The series is classed as cell-based. Conditions: Homo sapiens, 100 nM, 24 h treatment, read-out: relative mRNA level for CYP24A1 versus vehicle control. How it is done: Figure 7 20S(OH)D3 analogs upregulate the expression of CYP24A1 encoding the vitamin D catabolic enzyme, CYP24A1, with varying efficiencies. […] The mRNA was isolated and the RT-PCR was performed using specific primers for the CYP24A1 gene (see Methods). Data are presented as mean ± SE (n = 3). *p < 0.05, **p < 0.01 and ***p < 0.001 compared with the control.
HaCaT cells were purchased from Thermo Fisher Scientific (Waltham, MA, USA) and were cultured as for the VDRE reporter assay. The RNA from HaCaT keratinocytes treated with secosteroids or from DMSO controls was isolated using the Absolutely RNA Miniprep Kit (Stratagene, La Jolla, CA, USA). Reverse transcription (100 ng RNA/reaction) was performed with the Transcriptor First Strand cDNA Synthesis Kit (Roche Inc., Mannheim, Germany). Real-time PCR was performed using cDNA diluted 10-fold in sterile water and a SYBR Green PCR Master Mix. The primers for both forward and reverse strands for CYP24A1 were designed based on the mouse and rat sequences using Primer Quest software ([…], San Jose, CA, USA). Reactions (in triplicate) were performed at 50 °C for 2 min, 95 °C for 10 min and then 40 cycles of 95 °C for 15 s, 60 °C for 30 s and 72 °C for 30 s. Data were collected and analyzed on a Roche Light Cycler 480. The amount of the final amplified product for each gene was compared and normalized to the amount of β-actin product as a housekeeping gene using a comparative Ct method.

The conditions of series [1]: rats; cited from earlier work.
On the set-up of series [2]: method as in earlier work. As to conditions: mice, doses as high as 60 µg/kg; cited from earlier work.
The subject of series [3] is collagen-induced arthritis. Details: method as in earlier work. As to conditions: mouse model, dose as low as 2 µg/kg; cited from earlier work.

On to `C=C1CC[C@H](O)C/C1=C/C=C1\CCC[C@@]2(C)[C@H]1CC[C@@H]2[C@@](C)(O)CCOC(C)C` [compound 13], for which the fold induction at 0.1 µM with CYP24A1 gene expression worked out at 0.8.
With `C=C1CC[C@H](O)C/C1=C/C=C1\CCC[C@@]2(C)[C@H]1CC[C@@H]2[C@@](C)(O)CCCC(C)C` [20S(OH)D3, 20S-hydroxyvitamin D3], the hypercalcemia result in series [1] and in series [2] was “does not cause hypercalcemia” throughout. Moreover, the fold induction at 0.1 µM with CYP24A1 gene expression stood at 4.4. Moreover, the “effect on collagen-induced arthritis” value in series [3] is “suppressive effects”.
